Measurements from PubChem BioAssay AID1963836 (Molecular Pharmacology Branch, DTP, NCI, 2024).

System: 857933-349-R-J2-PDC complex spheroid viability
Test: Anticancer human tumor 857933-349-R-J2-PDC patient-derived colon adenocarcinoma cell line growth inhibition [POLQ]
Conditions: for IC50: curve of first compound; for viability, T/C: stronger effect = lower value; active = viability on the fitted dose curve at most 10% of control; inactive = the rest
Protocol: Multicellular complex tumor spheroid response to Polymerase (POL) inhibitors (novobiocin, ART-558, RP6685) in combination with a variety of drugs and investigational agents in selected tumor cell lines
The POL inhibitors (novobiocin, ART-558, and RP6685) were evaluated both individually and in combination with standard of care and investigational anticancer small molecules within a complex spheroid model of solid tumors. . Complex spheroids include a stromal component modeled by human endothelial cells (HUVEC) and fibroblasts modeled by human mesenchymal stem cells (MSCs). The concentration ranges selected for each drug and investigational agent were based upon clinically achievable concentrations if the clinical Cmax of the agent was known.
Compounds. The drugs and investigational agents: novobiocin (NSC847541), ART-558 (NSC835418), RP-6685 (NSC848927), peposertib (NSC802822), ceralasertib (NSC780249), elimusertib (NSC800525), camonsertib (NSC841442), AZD-1390 (NSC803789), olaparib (NSC753686), talazoparib (NSC767125), rucaparib (NSC756644), sotorasib (NSC818433), MRTX-1133 (NSC836407), SN-38 (NSC673596), topotecan (NSC609699), epotoside (NSC141540), doxorubicin (NSC123127), gemcitabine (NSC613327), 5-fluorouracil (NSC19893), paclitaxel (NSC125973), vemurafenib (NSC761431), MSA-2 (NSC828583), SN-011 (NSC837082), adavosertib (NSC754352), prexasertib (NSC758257), carboplatin (NSC241240) and oxaliplatin (NSC266046), were obtained from the National Cancer Institute (NCI) Developmental Therapeutics Program Chemical Repository (21). The FDA-approved anticancer drug set is available from the Developmental Therapeutics Program at https://dtp.cancer.gov/organization/dscb/obtaining/. […] The stock solutions were prepared in dimethyl sulfoxide (DMSO, Sigma-Aldrich, St. Louis, MO, cat. D2650), except for the platinum compounds which were prepared in saline (Quality Biological, Gaithersburg, MD, cat. 114-055-101), at 800-fold the tested concentration and stored at -70 degrees C prior to their use. All drugs and investigational agents were tested over a range starting from a high concentration at or near the clinical Cmax and decreasing in half-log increments. If the clinical Cmax for an agent had not been determined, the highest concentration tested was 10 microM, except for SN-38, which was tested at a high concentration of 1 microM.
Cell Culture. All cells were maintained in an incubator at 37 degrees C and 5% CO2 with 95% humidity. The PDC lines were cultured according to standard operating procedures established by the NCI PDMR (https://pdmr.cancer.gov). Table 3 of the manuscript, lists the cell lines along with the number of the three cell types plated to form the mct-spheroids and media for tumor cell growth. After thawing, all PDC lines, except 997537-175-T-J1-PDC and 415267-285-R-J2-PDC, were cultured in Matrigel-coated flasks prepared with a working solution of 1X Ham's F-12 nutrient mix, without supplementation (Thermo Fisher Scientific, cat. 11765054), 100 U/mL penicillin-streptomycin (Thermo Fisher Scientific, cat. 15140122), and 2.5% Matrigel (Corning Inc., Corning, NY, cat. 354248) for the first three passages. The two PDC lines 997537-175-T-J1-PDC and 415267-285-R-J2-PDC were cultured on uncoated flasks. The 857933-349-R-J2-PDC line was cultured in 6C/Colon 1B media containing advanced DMEM/F-12 (Thermo Fisher Scientific, cat. 12634028), 10 mM HEPES (Thermo Fisher Scientific, cat. 15630080), 1X GlutaMAX supplement (Thermo Fisher Scientific, cat. 35050061), 0.1 mg/mL primocin (InvivoGen, San Diego, CA, cat. ant-pm-2), 10% defined fetal bovine serum, heat inactivated (HyClone Laboratories Inc., Logan, UT, cat. SH30070.03HI), 50% L-WRN conditioned media (ATCC, cat. CRL-3276), 1.25 mM N-Acetyl-L-cysteine (Sigma-Aldrich, cat. A9165), 10 mM nicotinamide (Sigma-Aldrich, cat. N0636), 1X B-27 supplement (Thermo Fisher Scientific, cat. 17504044), 1X N-2 supplement (Thermo Fisher Scientific, cat. […]
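Also: spheroids exposed to compounds for seven days before readout.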

CNCc1ccc(-c2[nH]c3cc(F)cc4c3c2CCNC4=O)cc1 + Nc1ccc(C#CCN(C(=O)Cc2ncc(C(F)(F)F)cc2C(F)(F)F)c2ccc(F)cc2)nn1
inactive: viability, T/C (second compound 0.0316 µM, first compound 0.0316 µM) 91.7% | viability, T/C (second compound 0.0316 µM, first compound 0.1 µM) 101% | viability, T/C (second compound 0.0316 µM, first compound 0.316 µM) 92% | viability, T/C (second compound 0.0316 µM, first compound 1 µM) 97.1% | viability, T/C (second compound 0.0316 µM, first compound 3.16 µM) 101% | viability, T/C (second compound 0.0316 µM, first compound 10 µM) 98.2% | viability, T/C (second compound 0.1 µM, first compound 0.0316 µM) 94.5% | viability, T/C (second compound 0.1 µM, first compound 0.1 µM) 78.7% | viability, T/C (second compound 0.1 µM, first compound 0.316 µM) 85.6% | viability, T/C (second compound 0.1 µM, first compound 1 µM) 110% | viability, T/C (second compound 0.1 µM, first compound 3.16 µM) 103% | viability, T/C (second compound 0.1 µM, first compound 10 µM) 93.7% | viability, T/C (second compound 0.316 µM, first compound 0.0316 µM) 103% | viability, T/C (second compound 0.316 µM, first compound 0.1 µM) 102% | viability, T/C (second compound 0.316 µM, first compound 0.316 µM) 95.3% | viability, T/C (second compound 0.316 µM, first compound 1 µM) 94.9% | viability, T/C (second compound 0.316 µM, first compound 3.16 µM) 107% | viability, T/C (second compound 0.316 µM, first compound 10 µM) 90.6% | viability, T/C (second compound 1 µM, first compound 0.0316 µM) 93.4% | viability, T/C (second compound 1 µM, first compound 0.1 µM) 101% | viability, T/C (second compound 1 µM, first compound 0.316 µM) 98.9% | viability, T/C (second compound 1 µM, first compound 1 µM) 107% | viability, T/C (second compound 1 µM, first compound 3.16 µM) 94.3% | viability, T/C (second compound 1 µM, first compound 10 µM) 98.2% | viability, T/C (second compound 3.16 µM, first compound 0.0316 µM) 96.3% | viability, T/C (second compound 3.16 µM, first compound 0.1 µM) 84.9% | viability, T/C (second compound 3.16 µM, first compound 0.316 µM) 92.1% | viability, T/C (second compound 3.16 µM, first compound 1 µM) 104% | viability, T/C (second compound 3.16 µM, first compound 3.16 µM) 97.7% | viability, T/C (second compound 3.16 µM, first compound 10 µM) 101% | viability, T/C (second compound 10 µM, first compound 0.0316 µM) 91.6% | viability, T/C (second compound 10 µM, first compound 0.1 µM) 99% | viability, T/C (second compound 10 µM, first compound 0.316 µM) 91.2% | viability, T/C (second compound 10 µM, first compound 1 µM) 93% | viability, T/C (second compound 10 µM, first compound 3.16 µM) 100% | viability, T/C (second compound 10 µM, first compound 10 µM) 92%
> 10 µM: IC50 (second compound 0.0316 µM) | IC50 (second compound 0.1 µM) | IC50 (second compound 0.316 µM) | IC50 (second compound 1 µM) | IC50 (second compound 3.16 µM) | IC50 (second compound 10 µM)
